What was measured:
[1] = test system: canine PMNs; test: Binding of biotin labelled wild type and attenuated LukS and LukF to canine PMNs; type: cell-based, dog; conditions: biotin labelled proteins, 30 minutes
Procedure: Purified recombinant S. pseudintermedius wild type and attenuated LukS and LukF at 500 μg/ml in PBS (pH 7.2) were incubated with 50 μl of 10 mM EZ-Link Sulfo-NHS-LC-Biotin reagent (equal to 20-fold molar excess of biotin) (Thermo Scientific, Cat No. 21327) for 30 min at room temperature. Excess biotin was removed using an Amicon Ultra-0.5 Centrifugal Filter Unit with a 30 kDa molecular weight cut-off (Milipore sigma, Cat No. UFC5030). The biotin-labeled proteins were stored at −20° C. until further use.
To test the binding of wild type and attenuated LukS and LukF to canine PMNs, biotin labelled recombinant proteins were incubated with PMNs from a clinical healthy dog for 30 minutes at room temperature, the cells were washed, then PMNs were incubated with 1:500 dilution of avidin-FITC conjugate (Sigma-Aldrich, A2050) at room temperature for 30 minutes in the dark. Unbound conjugate was removed by washing and the amount of binding was determined using a flow cytometer (Attune acoustic focusing cytometer) by gating on PMNs based on their side and forward scatter properties.

[2] = test system: clinically normal dogs; test: Antibody response of dogs injected with SpEX-M (ELISA); type: in vivo, dog; conditions: 20 μg subcutaneous, three weekly injections; sera days −7, 8, 15, 29; versus pre-injection sera
Procedure: Recombinant SpEX-M (SEQ ID NO:12) produced in E. coli was purified using affinity chromatography (as above) and endotoxin concentration was measured using a ToxinSensor™ Chromogenic LAL Endotoxin Assay Kit (Genscript, Cat. No. L00350). Recombinant SpEX-M at 20 μg each/0.5 cc in phosphate buffered saline (PBS) (pH 7.2) were injected in the lateral thorax by the subcutaneous route, into three clinically normal dogs. Injections were given once every 7 days for a total of three injections with a control dog receiving PBS (pH 7.2) only. Blood (6 cc) was collected from a jugular vein 4 times, on days −7, 8, 15 and 29 (relative to injections). […]
For measurement of recombinant protein antigenicity, SpEX and SpEX-M were coated separately onto ELISA plates (Corning, Cat No. 3590) at 2 μg/ml in PBS. The plates were washed with 0.05% PBS-T and incubated with two-fold serial diluted serum from dogs (injected with recombinant proteins) for 1 h at 37° C., then bound IgG was detected using HRP-conjugated goat anti-dog IgG-heavy and light chain (Bethyl Laboratories, Inc. Cat No. A40-123-1). ELISA assays plates were washed three times with PBS-T between all incubations, bound antibodies were detected using TMB substrate (Thermo Scientific, Cat No. N301), reactions were stopped with 0.18 M sulphuric acid and optical density read at 450 nm on a plate reader (Bio TEK, EL800). […]

[3] = test system: canine PBMCs; test: PBMCs permeability assay (Sytox green); type: cell-based, dog; conditions: 100 μg, 30 min, relative to SpEX
Procedure: (§1) PMNs and PBMCs were separated as previously described. PMNs and PBMCs were incubated with recombinant proteins (SpEX and SpEX-M) at concentration of 100 μg in a volume of 500 μl in RPMI medium supplemented with 10% fetal bovine serum in a 5% CO2 incubator for 30 min. The supernatant of S. pseudintermedius 06-3228 was harvested at log phase to test the toxic effect of secreted SpEX. PMNs and PBMCs were stained with 1 Sytox green (Life Technologies, Inc. Cat No. 1776406) for 30 min, washed twice with PBS (pH 7.2) and analyzed using a flow cytometer (Attune acoustic focusing cytometer) by gating on PMNs and PBMCs based on their side and forward scatter properties.
(§2) To determine the protective effect of canine anti-SpEX-M on PMNs and PBMCs, recombinant S. pseudintermedius SpEX at concentration of 100 μg/ml in PBS (pH 7.2) was incubated for 30 minutes at 37° C. with serum from SpEX-M injected dogs. The experiment was run in duplicate and a p-value of <0.05 was considered significant.
(§3) For flow cytometry analysis the cut-off for cell death was established using leukocytes incubated without SpEX. Mean fluorescent intensity was determined from all gated cells.

[4] = test system: canine PMNs; test: PMNs permeability assay (Sytox green); type: cell-based, dog; conditions: 100 μg, 30 min, relative to SpEX
Procedure: as §1, §2, §3

[5] = test system: canine blood PMNs; test: Phagocytosis of pHrodo-labeled S. pseudintermedius 08-1661 in dog blood (flow cytometry); type: cell-based; conditions: 37° C., adenosine 15 μM, ADP analogue 500 μM, A2A receptor antagonist
Procedure: (§4) Bacteria for the phagocytosis assay were labeled using a pHrodo™ phagocytosis particle labeling kit (Life technologies, P35369) (10). Briefly, overnight cultures of S. pseudintermedius 06-3228 and 08-1661 were diluted 1:100 into fresh TSB and grown for 3 hours at 37° C. Bacteria were centrifuged, washed twice, and diluted to 20 mg/mL wet weight in 0.1 M sodium bicarbonate, pH 8.5, and pHrodo™ dye was dissolved in DMSO at 10 mM. The bacteria were suspended at a final dye concentration of 0.5 mM. The inhibitory effect of SpAdsA on canine neutrophils was evaluated in blood samples by exposing the EDTA-whole blood samples to pHrodo™ dye-labeled S. pseudintermedius 06-3228 and 08-1661 for 30 and 60 minutes at 37° C. The RBCs were lysed using Red Blood Cell Lysing Buffer Hybri-Max™ (Sigma-Aldrich, Cat NO. R7757) followed by centrifugation and washing. The final cell pellet, containing leukocytes, was suspended in wash buffer and analyzed using a flow cytometer equipped with a 488-nm argon ion laser (Attune acoustic focusing cytometry).

[6] = test system: canine blood PMNs; test: Phagocytosis of pHrodo-labeled S. pseudintermedius 06-3228 in dog blood (flow cytometry); type: cell-based; conditions: 37° C., adenosine 15 μM, ADP analogue 500 μM, ZM241385 1 μM
Procedure: as §4

[7] = test system: S. pseudintermedius 06-3228; test: Bacterial survival in canine blood; type: cell-based, Staphylococcus pseudintermedius; conditions: adenosine 15 μM; 5′-(α, β-methylene) diphosphate 500 μM; ZM241385; 1, 1.5, 2 hours; versus bacteria alone
Procedure: (§5) Overnight cultures of S. pseudintermedius 06-3228 and 08-1661 were diluted 1:100 into fresh TSB and grown for 3 hours at 37° C. Staphylococci were centrifuged 9000×g, washed twice, and diluted in PBS to yield an O.D 600 of 0.5. Then 100 μl of 4×10^6 CFU per ml of bacteria were mixed with 500 μl of fresh canine blood, collected in EDTA. The samples were incubated at 37° C. with 100 rpm shaking and harvested at 60, 90 and 120 minutes. They were incubated on ice for 30 minutes in 1 ml of Red Blood Cell Lysing Buffer Hybri-Max™ (Sigma-Aldrich, Cat NO. R7757), then bacteria were pelleted at 9,000×g at 4° C. and plated on tryptic soy agar (TSA) for enumeration of viable bacteria.

[8] = test system: S. pseudintermedius 08-1661; test: Bacterial survival in canine blood; type: cell-based, Staphylococcus pseudintermedius; conditions: adenosine 15 μM; 5′-(α, β-methylene) diphosphate 500 μM; ZM241385; 1, 1.5, 2 hours; versus bacteria alone
Procedure: as §5

[9] = test system: dog IgG; test: ELISA reactivity with dog serum / dog IgG; type: binding; conditions: compared to SpsQ and SpA
Procedure: (§6) To test the reactivity of serum from a dog with chronic pyoderma, S. aureus SpA and S. pseudintermedius SpsQ and SpsQ-M were coated on ELISA plates (Corning, USA Cat No. 3590) at 2 μg/ml in PBS. They were incubated with serum at a dilution of 1:2000. Bound IgG, IgM, and IgA were detected by HRP-goat anti-dog IgG-heavy and light chain (Bethyl Laboratories, Inc., USA Cat No. A40-123-1), HRP-goat anti-dog IgM μ chain (Bethyl Laboratories, Inc., USA Cat No. A40-116-2), HRP-goat anti-dog IgA (Bethyl Laboratories, Inc., USA Cat No. A40-104P) at a dilution of 1:8000 in PBS-T. Dog whole IgG molecule (Rockland, USA Cat No. 004-0102-1000) was used for comparison to measure non-specific IgG binding.

[10] = test system: dog IgM; test: ELISA reactivity with dog IgM; type: binding; conditions: compared to SpsQ and SpA
Procedure: as §6

[11] = test system: dog IgA; test: ELISA reactivity with dog IgA; type: binding; conditions: compared to SpsQ and SpA
Procedure: as §6

[12] = test system: canine B cells; test: B cell death (Sytox green, flow cytometry); type: cell-based, dog; conditions: 3.5 h incubation; ± SEM
Procedure: (§7) A total of 100 μg of purified recombinant SpsQ or SpsQ-M was mixed with isolated peripheral blood mononuclear cells (PBMC) in 1 ml of RPMI medium supplemented with 10% fetal bovine serum and incubated for 1.5 h at 37° C. in a 5% CO2 incubator. To detect early phases of B cell apoptosis, phosphatidylserine was measured on the surface of cells using pacific blue-conjugated annexin (Thermo Scientific, USA Cat No. A35136). B cells were identified using phycoerythrin (PE) conjugated mouse anti-canine CD21 (clone: CA2.1D6) (BIO-RAD, USA Cat No. MCA1781PE) that recognizes canine CD21 (complement receptor type 2) on mature B lymphocytes. Stained B cells were analyzed using a flow cytometer (Attune acoustic focusing cytometer). B cells were also incubated with the same recombinant proteins as described above but for 3.5 h in order to detect B cell death. Cells were stained with Sytox green (Life Technologies, Inc., USA Cat No. 1776406) and PE-conjugated mouse anti-canine CD21. Gates were placed on cells positive for PE and these B cells were analyzed by flow cytometry.
(§8) For flow cytometry analysis the cut-off for apoptosis or cell death was established using leukocytes incubated without SpsQ. Mean fluorescent intensity was determined from all B cells.

[13] = test system: chicken anti-protein A antibody; test: ELISA antigenicity with HRP-chicken anti-protein A antibody; type: binding; conditions: coated protein
Procedure: For measurement of the antigenicity of recombinant proteins, affinity-purified SpsQ and SpsQ-M were coated on ELISA plates (Corning, USA Cat No. 3590) at […] in PBS (pH 7.2). The plates were washed with PBS-T and incubated with HRP-chicken anti-protein A antibody (Gallus Immunotech, USA Cat No. APA) for 1 h at 37° C., then washed. For this and all subsequent ELISA assays, plates were washed three times with PBS-T between all incubations, bound antibodies were detected using TMB substrate (Thermo Scientific, USA Cat No. N301), reactions were stopped with 0.18 M sulphuric acid and optical density read at 450 nm on a plate reader (Bio TEK, USA Cat No. EL800). The experiment was repeated at least three times and a p-value of <0.05 was considered significant, which was the same for all the experiments unless mentioned otherwise.

[14] = test system: canine B cells; test: B cell apoptosis (annexin, flow cytometry); type: cell-based, dog; conditions: 1.5 h
Procedure: as §7, §8

## LukS-M: attenuated Leukotoxin S with substitutions T57F, K128A and S239A
[1]
  binding to canine leukocytes: bound to canine leukocytes without causing any significant killing

## SpEX-M: attenuated SpEX with substitutions D 102A, T125P, T206P and R217A
[2]
  IgG against S. pseudintermedius SpEX-M and SpEX in sera of injected dogs: reached the highest level on day 29
[3]
  killing effect on PBMCs of dogs: diminished killing effect
[4]
  killing effect on PMNs: diminished killing effect

## Nc1ncnc2c1ncn2[C@@H]1O[C@H](CO)[C@@H](O)[C@H]1O [adenosine]
[5]; 08-1661, 30 minutes
  phagocytosis, mean MFI: 375,737
[5]; 08-1661, 60 minutes
  phagocytosis, mean MFI: 764,921
[6]; 06-3228, 30 minutes
  phagocytosis, mean MFI: 89,583
[6]; 06-3228, 60 minutes
  phagocytosis, mean MFI: 711,453
[7]
  survival of S. pseudintermedius 06-3228 in canine blood: significantly promoted
[8]
  survival of S. pseudintermedius 08-1661 in canine blood: significantly promoted

## Nc1nc(NCCc2ccc(O)cc2)nc2nc(-c3ccco3)nn12 [ZM241385]
[5]; 08-1661, 30 minutes
  phagocytosis, mean MFI: 1,306,729
[5]; 08-1661, 60 minutes
  phagocytosis, mean MFI: 2,924,203
[6]; 06-3228, 30 minutes
  phagocytosis, mean MFI: 241513
[6]; 06-3228, 60 minutes
  phagocytosis, mean MFI: no significant difference
[7]
  survival of S. pseudintermedius 06-3228 in canine blood: significantly decreased at all of time points
[8]
  survival of S. pseudintermedius 08-1661 in canine blood: significantly decreased at all of time points

## LukF-M: attenuated Leukotoxin F with substitutions S59D and N65A
[1]
  binding to canine leukocytes: bound to canine leukocytes without causing any significant killing

## SpsQ-M: attenuated non-toxigenic S. pseudintermedius protein A with Q5K, Q6K, D32A, D33A in each Ig binding domain
[9]
  binding to commercial dog IgG: significantly lower binding
[10]
  binding to IgM: significantly lower binding
[11]
  binding to IgA: significantly lower binding
[12]
  Sytox MFI reduction compared to that of SpsQ: 519065±128292
[13]
  reactivity with chicken anti-protein A (antigenicity): strong reactivity
[14]; 100 μg protein, PBMC
  apoptotic effect on B cells: low apoptotic effect
[14]
  mean+/−SEM fluorescent intensity (MFI) difference between SpsQ and SpsQ-M: 2052±285.2
